Experiment [1] deals with T1, α-Fucosidase (Homo sapiens, UniProt P04066).
T1 construct: from tissue; host or cells: human liver
T1 sequence (P04066 32-466): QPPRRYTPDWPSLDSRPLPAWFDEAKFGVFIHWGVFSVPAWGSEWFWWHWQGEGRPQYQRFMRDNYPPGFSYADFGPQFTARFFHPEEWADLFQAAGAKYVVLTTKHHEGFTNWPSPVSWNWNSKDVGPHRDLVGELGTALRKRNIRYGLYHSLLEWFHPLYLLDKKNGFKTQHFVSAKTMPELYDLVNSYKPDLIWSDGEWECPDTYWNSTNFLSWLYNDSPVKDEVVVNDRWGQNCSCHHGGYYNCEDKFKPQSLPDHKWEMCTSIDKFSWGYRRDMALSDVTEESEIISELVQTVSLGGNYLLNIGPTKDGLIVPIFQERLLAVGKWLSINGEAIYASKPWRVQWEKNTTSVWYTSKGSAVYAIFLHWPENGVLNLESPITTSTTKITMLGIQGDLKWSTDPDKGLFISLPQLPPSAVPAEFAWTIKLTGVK
Kind of experiment: % inhibition of human liver α-fucosidase catalysed hydrolysis. It counts as biochemical. The procedure: % Inhibition of human liver α-fucosidase and α-mannosidase
catalysed hydrolysis of 4-umbelliferyl pyrranosides at
1 mM concentration of inhibitor

Experiment [2] has as its system human α-mannosidases. Kind of experiment: inhibition of human liver α-mannosidases (summary of lysosomal, Golgi II and neutral). The class given is biochemical. The settings on record: for specificity and potency of inhibition of human α-mannosidases, HMJ compared with DMJ: HMJ (6) vs DMJ (5). An excerpt:
(§1) The relative potencies of these compounds as fucosidase inhibitors may be understood by considering them as analogues of α-L-fucose; all three compounds have the correct chirality of the secondary hydroxyl groups--the minimum requirement for inhibition of α-fucosidase. […] All the compounds are weaker inhibitors of α-fucosidase than is deoxyfuconojirimycin, since they all lack a lipophilic methyl substituent with correct configuration.

Experiment [3] deals with β-mannosidase. Kind of experiment: inhibition of human liver β-mannosidase. The class given is biochemical.
Source text: as §1

For experiment [4], the system named is α-mannosidases. Particulars: literature; cited from earlier work.
Experiment [5] deals with human liver α-fucosidase. The settings on record: literature; compared with deoxyfuconojirimycin (4); cited from earlier work.
Experiment [6] concerns α-glucosidase. Particulars: literature; cited from earlier work.

The text below walks through data of patent publication US5101027A, “Synthesis of mannojirimycin derivatives” (Monsanto Company, priority 1990, dated 1992).

As to `OC[C@@H]1N[C@H](CO)[C@@H](O)[C@@H](O)[C@@H]1O` [6-Epi-homomannojirimycin (8), 2,6-dideoxy-2,6-imino-L-glycero-D-talo-heptitol], in experiment [1], the “inhibition of α-fucosidase (in words)” value is recorded as “powerful inhibitors of α-fucosidase”. Besides, the “inhibition of α-mannosidases (in words)” value in experiment [2] is listed as “did not inhibit any α-mannosidase”.

As for `OC[C@H]1NC[C@@H](O)[C@@H](O)[C@@H]1O` [Deoxymannojirimycin (5), Deoxymannojirimycin], the “inhibition of α-fucosidase (in words)” value in experiment [1] is listed as “powerful inhibitors of α-fucosidase”. For the same compound, in experiment [3], the “inhibition of β-mannosidase (in words)” value was “Neither compound inhibited β-mannosidase”. Further, in experiment [2], the “specificity and potency of inhibition of human α-mannosidases, HMJ compared with DMJ” value is listed as “very similar”. Also, the “inhibition of α-mannosidases in general (in words)” value in experiment [4] is listed as “relatively weak inhibitor of α-mannosidases in general”.

On to `OC[C@H]1N[C@H](CO)[C@@H](O)C(O)[C@@H]1O` (stereo partly drawn) [Homomannojirimycin (6), 2,6-dideoxy-2,6-imino-D-glycero-D-talo-heptitol], for which the “inhibition of α-fucosidase (in words)” value in experiment [1] is reported as “only a weak inhibitor of this enzyme”. Moreover, the “inhibition of β-mannosidase (in words)” value in experiment [3] was “Neither compound inhibited β-mannosidase”. In addition, in experiment [2], the “specificity and potency of inhibition of human α-mannosidases, HMJ compared with DMJ” value was “very similar”.

Turning to `C[C@@H]1N[C@H](CO)[C@@H](O)[C@H](O)[C@@H]1O` [homofuconojirimycin (3), homofuconojirimycin], the “inhibition of human liver α-fucosidase relative to deoxyfuconojirimycin (4)” value in experiment [5] is listed as “as powerful an inhibitor of human liver α-fucosidase as is deoxyfuconojirimycin (4)”.

Turning to `OC[C@H]1N[C@H](CO[C@@H]2O[C@H](CO)[C@@H](O)[C@H](O)[C@H]2O)[C@H](O)[C@@H](O)[C@@H]1O` [β-glucopyranosyl derivative (2)], the “α-glucosidase inhibition (in words)” value in experiment [6] was “powerful α-glucosidase inhibitor”.
